Test results taken from the supplement of paper PMC10307832.

Legend:
Assay in all cases: relative viability (nuclei count vs DMSO), 5 days (fraction); higher = more cells survive
Trametinib + Phenformin = compound: CC(=O)Nc1cccc(-n2c(=O)n(C3CC3)c(=O)c3c(Nc4ccc(I)cc4F)n(C)c(=O)c(C)c32)c1 [Trametinib] + N=C(N)NC(=N)NCCc1ccccc1 [Phenformin] (partner 250 µM)
Procedure, shortened: (§1)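 Five library-drug doses in √10 steps were combined with a fixed anchor-drug dose, or a single drug was given alone, by pin tool to lung cancer cell lines in 1536-well plates the day after seeding. Nuclei were stained and counted after 5 days. Relative viability is the nuclei count in treated wells over that in vehicle wells, taken as the median of duplicate plates.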

Trametinib + Palbociclib = compound: CC(=O)Nc1cccc(-n2c(=O)n(C3CC3)c(=O)c3c(Nc4ccc(I)cc4F)n(C)c(=O)c(C)c32)c1 [Trametinib] + CC(=O)c1c(C)c2cnc(Nc3ccc(N4CCNCC4)cn3)nc2n(C2CCCC2)c1=O [Palbociclib] (partner 0.5 µM)
Procedure, shortened: as §1

Trametinib + OSI-027 = compound: CC(=O)Nc1cccc(-n2c(=O)n(C3CC3)c(=O)c3c(Nc4ccc(I)cc4F)n(C)c(=O)c(C)c32)c1 [Trametinib] + COc1cccc2cc(-c3nc([C@H]4CC[C@H](C(=O)O)CC4)n4ncnc(N)c34)[nH]c12 [OSI-027] (partner 0.5 µM)
Procedure, shortened: as §1

Trametinib + Pictilisib = compound: CC(=O)Nc1cccc(-n2c(=O)n(C3CC3)c(=O)c3c(Nc4ccc(I)cc4F)n(C)c(=O)c(C)c32)c1 [Trametinib] + CS(=O)(=O)N1CCN(Cc2cc3nc(-c4cccc5[nH]ncc45)nc(N4CCOCC4)c3s2)CC1 [Pictilisib] (partner 1 µM)
Procedure, shortened: as §1

Cell Line: UMC-11
- relative viability (Trametinib + Phenformin; first compound 0.0025 µM): 0.366
- relative viability (Trametinib + Phenformin; first compound 0.007906 µM): 0.328
- relative viability (Trametinib + Phenformin; first compound 0.025 µM): 0.28
- relative viability (Trametinib + Phenformin; first compound 0.07906 µM): 0.309
- relative viability (Trametinib + Phenformin; first compound 0.25 µM): 0.291
- relative viability (Trametinib + Palbociclib; first compound 0.0025 µM): 0.32
- relative viability (Trametinib + Palbociclib; first compound 0.007906 µM): 0.333
- relative viability (Trametinib + Palbociclib; first compound 0.25 µM): 0.312
- relative viability (Trametinib + OSI-027; first compound 0.0025 µM): 0.478
- relative viability (Trametinib + OSI-027; first compound 0.007906 µM): 0.403
- relative viability (Trametinib + OSI-027; first compound 0.025 µM): 0.291
- relative viability (Trametinib + OSI-027; first compound 0.07906 µM): 0.414
- relative viability (Trametinib + OSI-027; first compound 0.25 µM): 0.406
- relative viability (Trametinib + Pictilisib; first compound 0.0025 µM): 0.662
- relative viability (Trametinib + Pictilisib; first compound 0.007906 µM): 0.785
- relative viability (Trametinib + Pictilisib; first compound 0.025 µM): 0.297
- relative viability (Trametinib + Pictilisib; first compound 0.07906 µM): 0.709
- relative viability (Trametinib + Pictilisib; first compound 0.25 µM): 0.663
